Laboratory results published in US20210145830A1, “MATERIALS AND METHODS FOR TREATING CANCER” (Mayo Foundation for Medical Education and Research, priority 2018, published 2021).

Legend:
[1] = system: CART19; experiment: T cell degranulation and intracellular cytokine assays; type: cell-based
Procedure: FIG. 22A-C. In vitro experiment for the combination of CART19 and TP0903. A. CART19 were cocultured at different effector-to-target ratio (E:T) with luciferase-positive JeKo-1. At 48 hours, cell killing was assessed by luminescence. […] The means and SEM are shown (**, p<0.005, *, p<0.05, one-way ANOVA analysis). n.s., not statistically significant. B. CART19 degranulation assay and cytokine production in the presence of TP0903. CART19 were cocultured with JeKo-1 for 4 hours in the presence of TP0903 doses of TP0903 (10-65 nM). […] C. Th2/Th1 T cell subtype analysis during CART19 expansion in the presence pf TP0903. CART19 cells were stimulated with lethally irradiated (120 Gy) JeKo-1 cell lines in the presence of increasing doses of TP0903 (10-30 nM). At the day 3, Th1 and Th2 cells were defined using CD4, CCR6, CCR4 and CXCR3 expression. […] The means and SEM are shown (*, p<0.05, one-way ANOVA analysis). n.s., not statistically significant.
Briefly, T cells were incubated with target cells at a 1:5 ratio. After staining for CAR expression, antibodies against CD107a, CD28, CD49d and monensin were added at the time of incubation. After 4 hours, cells were harvested and stained for CD3, CD4, and Live Dead staining (Invitrogen). Cells were fixed and permeabilized (FIX & PERM Cell Fixation & Cell Permeabilization Kit, Life Technologies) and intracellular cytokine staining was then performed as indicated in the specific experiments.
T cells were incubated with target cells at a 1:5 ratio (experiments were done using JEKO cells as well as primary B cells). Antibodies against CD107a, CD28, CD49d and monensin were added at the time of incubation.
After 4 hours, cells were harvested and stained for CD3, CD4, and Live Dead staining (Invitrogen). Cells were fixed and permeabilized (FIX & PERM Cell Fixation & Cell Permeabilization Kit, Life Technologies), and intracellular cytokine staining was then performed. […] The number of CD4 and CD8 cells positively stained for cluster of differentiation 107a (CD107a) or granulocyte-macrophage colony-stimulating factor (GM-CSF) in degranulation assays were shown in FIG. 5. The number of CD4 cells positively stained for interleukin-2 (IL-2) or interleukin-4 (IL-4) in degranulation assays were shown in FIG. 6.

[2] = system: Naïve T cells; experiment: Inhibitory receptor expression in stimulated naïve T cells; type: cell-based; conditions: PMA/Ionomycin
Procedure: FIGS. 19A-F. A. Inhibitory receptors expression in naïve T cells after TCR activation with CD3 stimulation in the increasing dose of TP0903. Naïve T cells were incubated with anti CD3/CD28 beads at a 1 to 3 ratio in the presence of TP0903. At day 3, T cells were stained with PD-1, TIM-3, LAG-3, and ICOS. […] Teff cells were isolated by negative selection using Human T Cell Isolation Kit. Tregs were isolated by negative selection using the human CD4^+CD127^lowCD25^+ Treg isolation kit. Teff and Treg were stimulated with anti CD3/CD28 beads and 400 U/ml of IL-2. At day 5, total T cells were evaluated via CountBright quantification. C. CART19 cytokine assay in the presence TP0903. UTDs or CART19 were incubated with Jeko in the presence of TP-0903 at a 1 to 1 ratio. Supernatant was harvested and analyzed by 32-plex Luminex array after 3 days. D. Inhibitory receptors expression in CART19 cells in the presence TP0903. UTDs or CART19 were incubated with Jeko at a 1 to 1 E/T ratio in the presence of TP0903. At day 5, T cells were stained with PD-1 (left), LAG-3 (right), and TIM-3. […] Cell killing was assessed by luminescence at 24 hours. […]
FIG. 21A-E. TP0903 modulates naïve T cells function upon stimulation of PMA/Ionomycin in vitro. […] At day 5, total T cells were evaluated via CountBright quantification.

[3] = T cells:targets 1:5, JEKO or primary B cells, 4 hours

CN1CCN(Cc2ccc(Nc3ncc(Cl)c(Nc4ccccc4S(=O)(=O)N(C)C)n3)cc2)CC1 [TP0903]
T cell specific degranulation or intracellular cytokines (CD107a, GM-CSF) ([1]; CD4 and CD8 cells): did not inhibit
activation of CART19 cells (CD107a degranulation, intracytoplasmic IL-2, IFN-γ, GM-CSF) ([1]; JeKo-1, 4 hours, TP0903 10-65 nM, presence or absence of TP0903): significant activation
secretion of IL-4 ([1]; JeKo-1, 4 hours, increasing dose of TP0903 (10-65 nM)): downregulated
CART cell functions [1, 3]: did not impair
Th2 cytokines (intracellular staining) [1, 3]: lowered
inhibitory receptors (PD-1, LAG-3, TIM-3, and ICOS) ([2]; day 3, high dose TP0903): significantly downregulated
inhibitory receptors ([2]; low dose TP0903): significant reduction
